Assay results: the NIST ThermoML archive (doi:10.1007/s10765-012-1371-1)

How the values were obtained:
[1] = 101 kPa, Liquid
[2] = xn = mol fraction of the nth substance listed; conditions: 101 kPa, Liquid

CC(C)CCl [1-chloro-2-methylpropane]
[1]
Conditions	viscosity [mPa·s]
283.15 K	0.5155
288.15 K	0.4833
293.15 K	0.454
298.15 K	0.4296
303.15 K	0.4112
308.15 K	0.3921
313.15 K	0.3726

COC(C)(C)C [2-methoxy-2-methylpropane] + CC(C)CCl
[2], x2 = 0
Conditions	viscosity [mPa·s]
283.15 K	0.3897
288.15 K	0.364
293.15 K	0.3482
298.15 K	0.3327
303.15 K	0.3152
308.15 K	0.2994
313.15 K	0.2846

CC(C)CCl [1-chloro-2-methylpropane] + CCCCOCC
[2], x1 = 1
Conditions	viscosity [mPa·s]
283.15 K	0.5155
288.15 K	0.4833
293.15 K	0.454
298.15 K	0.4296
303.15 K	0.4112
308.15 K	0.3921
313.15 K	0.3726

COC(C)(C)C [2-methoxy-2-methylpropane] + CCC(C)Cl
[2], x2 = 0
Conditions	viscosity [mPa·s]
283.15 K	0.3897
288.15 K	0.364
293.15 K	0.3482
298.15 K	0.3327
303.15 K	0.3152
308.15 K	0.2994
313.15 K	0.2846

CCCCOCC [butyl ethyl ether]
[1]
Conditions	viscosity [mPa·s]
283.15 K	0.4796
288.15 K	0.4509
293.15 K	0.4242
298.15 K	0.399
303.15 K	0.3756
308.15 K	0.356
313.15 K	0.3416

CCC(C)Cl (configuration not stated) [2-chlorobutane] + CCCCOCC
[2], x1 = 1
Conditions	viscosity [mPa·s]
283.15 K	0.4631
288.15 K	0.4365
293.15 K	0.4167
298.15 K	0.3993
303.15 K	0.38
308.15 K	0.3615
313.15 K	0.3443

CCC(C)Cl (configuration not stated) [2-chlorobutane]
[1]
Conditions	viscosity [mPa·s]
283.15 K	0.4631
288.15 K	0.4365
293.15 K	0.4167
298.15 K	0.3993
303.15 K	0.38
308.15 K	0.3615
313.15 K	0.3443

COC(C)(C)C [2-methoxy-2-methylpropane]
[1]
Conditions	viscosity [mPa·s]
283.15 K	0.3897
288.15 K	0.364
293.15 K	0.3482
298.15 K	0.3327
303.15 K	0.3152
308.15 K	0.2994
313.15 K	0.2846

COC(C)(C)C [2-methoxy-2-methylpropane] + CCCCCl
[2], x2 = 0
Conditions	viscosity [mPa·s]
283.15 K	0.3897
288.15 K	0.364
293.15 K	0.3482
298.15 K	0.3327
303.15 K	0.3152
308.15 K	0.2994
313.15 K	0.2846

CCCCCl [1-chlorobutane]
[1]
Conditions	viscosity [mPa·s]
283.15 K	0.4993
288.15 K	0.4701
293.15 K	0.4433
298.15 K	0.4214
303.15 K	0.405
308.15 K	0.3885
313.15 K	0.3642

CCCCCl [1-chlorobutane] + CCCCOCC
[2], x1 = 1
Conditions	viscosity [mPa·s]
283.15 K	0.4993
288.15 K	0.4701
293.15 K	0.4433
298.15 K	0.4214
303.15 K	0.405
308.15 K	0.3885
313.15 K	0.3642
